The results in this text go back to publication PMC9981747, “A covalent BTK ternary complex compatible with targeted protein degradation” (Nature Communications, 2023).

The target in assay [1] is T1, BTK^FL (Homo sapiens, UniProt Q06187).
T1 construct: we used a full-length BTK (aa1-659) with a C terminal Tobacco Etch Virus protease (TEV) site; expressed in transfected cells; host or cells: Expi293 (HEK293)
Nature of the assay: Covalent modification of BTK^FL in Expi293 cells without cIAP1, immunopurification and intact mass spectrometry. Type of assay: cell-based. To be noted: for Cov Form Over Time (% covalent bond formation): 5 µM, no exogenous cIAP1, replicates; for BTK^FL covalently modified: 18 h, n = 1. The procedure: (§1) For covalent modification detection assays, the compound was added to Expi293 cells after enhancer treatment. At each timepoint 10 mL of cells were harvested, rapidly cooled to 4 °C in an ice bath, and centrifuged at 100 x g at 4 °C for 5 min. The pellet was washed twice with ice-cold PBS, snap-frozen in liquid nitrogen, and stored at −80 °C. Each pellet was resuspended in 0.1 mL ice-cold RIPA Buffer supplemented with 40 µM BCNC (to outcompete any remaining BCCov), protease inhibitor, and benzonase, and sonicated with 10 brief blasts at power 20. Lysate was centrifuged at 15 K x g for 20 min at 4 °C and prepared for western blotting as detailed above. When samples were evaluated for covalent adduct formation, a purification step was required. Briefly, the ~1 mL of clarified lysate was added to 9 mL of FLAG binding buffer (25 mM HEPES 7.5, 300 mM NaCl, 10% glycerol). These samples were incubated with 250 µL of anti-FLAG M2 affinity resin (Millipore-Sigma Cat. # A2220) for 3 h at 4 °C with gentle nutation. Samples were washed via gravity column filtration and eluted with 0.2 mg/ml FLAG Peptide (DYKDDDDK, CPC Scientific Peptide Company). Each sample was concentrated to 0.1 mg/mL using an Amicon Ultra-15 Centrifugal filter with a 50 kDa MWCO (Millipore-Sigma Cat. # UFC905024). Details on mass spectrometry analysis are below.
Each sample was analyzed using intact mass spectrometry under denaturing conditions using an Agilent 6530 QToF Mass Spectrometer coupled with an Agilent Infinity 1290 UPLC chromatography system. Spectra were analyzed using ChemLaunch v1.6.8 (Healex Systems), Mass Hunter V7.0 (Agilent Technologies), and BioConfirm v8.0 (Agilent Technologies). For all proteins analyzed, approximately 2 μl of 0.1–0.4 mg/ml protein sample was added to 8 μl 0.2% trifluoroacetic acid (TFA) (Sigma T6508–100 mL). Subsequently, 5 μl of each sample was injected onto the instrument. Depending on the resolution, the amount of protein loaded was altered. Theoretical versus observed molecular weight is presented in Supplementary Table 1. While we have not experimentally determined the post-translational modifications (PTMs) resulting in observed molecular weight, we believe a loss of methionine and acetylation are likely. Variations between theoretical and observed masses may also be due to the resolution of the deconvoluted spectra leading to imperfect peak identification, particularly for a protein with heterogeneous phosphorylation states. Variation of several Daltons is observed between biological replicates and individual experiments.

Assay [2] has as its target T2, BTK^FL-C481S (Homo sapiens, UniProt Q06187, C481S).
T2 construct: we used a full-length BTK (aa1-659) with a C terminal Tobacco Etch Virus protease (TEV) site; expressed in transfected cells; host or cells: Expi293 (HEK293)
As to the kind of experiment: Covalent modification of BTK^FL-C481S in Expi293 cells, intact mass spectrometry. It counts as cell-based. To be noted: 20 µM. The procedure:
as §1, with “These samples were incubated with 250 µL of anti-FLAG M2 affinity resin (Millipore-Sigma Cat. # A2220) for 3 h at 4 °C with gentle nutation. Samples were washed via gravity column filtration and eluted with 0.2 mg/ml FLAG Peptide (DYKDDDDK, CPC Scientific Peptide Company). Each sample was concentrated to 0.1 mg/mL using an Amicon Ultra-15 Centrifugal filter with a 50 kDa MWCO (Millipore-Sigma Cat. # UFC905024). Details on mass spectrometry analysis are below.” left out
Each sample was analyzed using intact mass spectrometry under denaturing conditions using an Agilent 6530 QToF Mass Spectrometer coupled with an Agilent Infinity 1290 UPLC chromatography system. Spectra were analyzed using ChemLaunch v1.6.8 (Healex Systems), Mass Hunter V7.0 (Agilent Technologies), and BioConfirm v8.0 (Agilent Technologies). For all proteins analyzed, approximately 2 μl of 0.1–0.4 mg/ml protein sample was added to 8 μl 0.2% trifluoroacetic acid (TFA) (Sigma T6508–100 mL). […]

“And” between values parts separate entries of the source, which are not always exact repeats. Equal entries are not always repeated.

T1 sequence (Q06187 whole entry, the tested form may be a part): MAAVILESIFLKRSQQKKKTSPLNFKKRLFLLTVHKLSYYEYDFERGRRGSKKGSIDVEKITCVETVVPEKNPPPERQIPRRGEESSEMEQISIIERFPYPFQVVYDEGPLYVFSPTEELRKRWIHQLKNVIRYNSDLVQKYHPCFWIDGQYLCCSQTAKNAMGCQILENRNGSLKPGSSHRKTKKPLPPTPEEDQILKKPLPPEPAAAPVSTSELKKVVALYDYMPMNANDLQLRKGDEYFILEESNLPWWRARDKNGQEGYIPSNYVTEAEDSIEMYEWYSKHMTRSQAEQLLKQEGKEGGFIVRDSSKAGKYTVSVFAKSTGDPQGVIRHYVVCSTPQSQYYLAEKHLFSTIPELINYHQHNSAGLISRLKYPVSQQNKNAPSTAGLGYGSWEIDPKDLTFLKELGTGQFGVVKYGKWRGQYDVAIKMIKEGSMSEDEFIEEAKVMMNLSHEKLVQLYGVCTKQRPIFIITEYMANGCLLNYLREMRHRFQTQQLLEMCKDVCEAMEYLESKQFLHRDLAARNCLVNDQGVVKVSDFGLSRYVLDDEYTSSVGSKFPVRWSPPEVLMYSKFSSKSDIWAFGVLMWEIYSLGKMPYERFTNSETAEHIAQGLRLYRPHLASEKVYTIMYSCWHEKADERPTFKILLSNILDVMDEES
T2 sequence (Q06187 whole entry C481S, the tested form may be a part): as the sequence (Q06187 whole entry, the tested form may be a part) above, with C481S counted along it

In the case of `CNC(C)C(=O)NC(C(=O)N1CC(NC(=O)COCCN2CCN(CC=CC(=O)N3CCCC(n4nc(-c5ccc(Oc6ccccc6)cc5)c5c(N)ncnc54)C3)CC2)CC1C(=O)NC1CCCc2ccccc21)C1CCCCC1` (stereo not shown) [BCCov], the “Cov Form Over Time (% covalent bond formation)” value was 5.67% and 6.21% and 5.89% in assay [1] (0.5 h); 8.64% and 10.21% and 9.49% in assay [1] (1 h); 14.47% and 13.21% and 14.33% in assay [1] (2 h); 19.26% and 19.25% and 19.86% in assay [1] (3.5 h); 31.90% and 34.21% and 30.28% in assay [1] (5.5 h); 34.24% and 36.81% and 34.22% in assay [1] (7 h). For the same compound, the “Cov Form Over Time (% covalent bond formation)” value in assay [1] (17 h) was 33.97% and 36.13% and 34.85%. Also, the “BTK^FL covalently modified” value amounted to 35.00% in assay [1] (5 uM), 64.70% in assay [1] (10 uM), 77.49% in assay [1] (15 uM) and 94.20% in assay [1] (30 uM). Moreover, the “time that the level of covalent modification remains stable post-treatment” value in assay [1] (single dose 20 µM) is recorded as “at least 48 h”. Moreover, the “covalent adduct formation on BTK^FL-C481S” value in assay [2] was “no similar adduct”.
